Measurements from patent publication US20020137929A1, “1 - (3-heterocyclylphenyl) isothiourea, -isourea, -guanidine and -amidine herbicidal agents” (Intellectual Property Department, BASF Aktiengesellschaft, priority 1998, published 2002).

Legend:
[1] = tested on: GLXMAW (Soybean, Williams); assay: Preemergence herbicidal evaluation; format: in vivo, Glycine max, (L.) Merr. cv Williams; conditions: rated 4-5 weeks after treatment
Method in brief: (§1)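 Steps: mix seeds into potting soil; plant atop ~1 inch soil; spray compound in aqueous acetone (~0.0156-0.500 kg/ha equivalent); maintain in greenhouse with watering; rate visually 0-9 versus control at 4-5 weeks.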

[2] = tested on: AMBEL (Ragweed, Common); assay: Preemergence herbicidal evaluation; format: in vivo, Ambrosia artemisifolia; conditions: rated 4-5 weeks after treatment
Method in brief: as §1

[3] = tested on: ABUTH (Velvetleaf); assay: Preemergence herbicidal evaluation; format: in vivo, Abutilon theophrasti; conditions: rated 4-5 weeks after treatment
Method in brief: as §1

[4] = tested on: ZEAMX (Corn, Field); assay: Postemergence herbicidal evaluation; format: in vivo, Zea mays; conditions: for herbicidal rating ZEAMX: postemergence
Method in brief: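 Herbicidal effect was judged by eye on a 0–9 scale covering stand, vigor, deformity, size and chlorosis, compared with controls, four to five weeks after seedlings about two weeks old were sprayed (40 psi, ~0.0156–0.500 kg/ha).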

[5] = rate 0.0156 kg/ha, rating scale 0-9
[6] = rate 0.0313 kg/ha, rating scale 0-9
[7] = rate 0.0625 kg/ha, rating scale 0-9
[8] = rate 0.1250 kg/ha, rating scale 0-9
[9] = rate 0.2500 kg/ha, rating scale 0-9

SMILES | Preemergence herbicidal rating GLXMAW [1, 5] | Preemergence herbicidal rating GLXMAW [1, 6] | Preemergence herbicidal rating GLXMAW [1, 7] | Preemergence herbicidal rating GLXMAW [1, 8] | Preemergence herbicidal rating GLXMAW [1, 9] | Preemergence herbicidal rating AMBEL [2, 5] | Preemergence herbicidal rating AMBEL [2, 6] | Preemergence herbicidal rating AMBEL [2, 7] | Preemergence herbicidal rating AMBEL [2, 8] | Preemergence herbicidal rating AMBEL [2, 9] | Preemergence herbicidal rating ABUTH [3, 5] | Preemergence herbicidal rating ABUTH [3, 6] | Preemergence herbicidal rating ABUTH [3, 7] | Preemergence herbicidal rating ABUTH [3, 8] | Preemergence herbicidal rating ABUTH [3, 9] | herbicidal rating ZEAMX ([4]; rate 0.0156 kg/ha) | herbicidal rating ZEAMX ([4]; rate 0.0313 kg/ha) | herbicidal rating ZEAMX ([4]; rate 0.0625 kg/ha) | also measured
Cc1ccc(CN2C(=O)CSC2=Nc2cc(-n3c(=O)cc(C(F)(F)F)n(C)c3=O)c(F)cc2Cl)cc1C [Compound 147, 3-{4-Chloro-5-{[3-(3,4-dimethylbenzyl)-4-oxo-2-thiazolidinylidene]amino}-2-fluorophenyl}-1-methyl-6-(trifluoromethyl)-2,4(1H,3H)-pyrimidinedione] | 1.0 | 0.0 | 0.0 | 0.0 | 1.0 | 0.0 | 0.0 | 0.0 | 1.0 | 4.0 | 0.0 | 0.0 | 0.0 | 4.0 | 7.0 | 4.0 | 4.5 | 4.5 | 
CCCN1C(=O)CSC1=Nc1cc(-n2c(=O)cc(C(F)(F)F)n(C)c2=O)c(F)cc1Cl [Compound 171, 3-{4-Chloro-2-fluoro-5-[(4-oxo-3-propyl-2-thiazolidinylidene)amino]phenyl}-1-methyl-6-(trifluoromethyl)-2,4 (1H, 3H)-pyrimidinedione] |  |  |  |  |  |  |  |  |  |  |  |  |  |  |  |  |  | 7.0 | Preemergence herbicidal rating GLXMAW ([1]; 0.0156 kg/ha): 1.0; Preemergence herbicidal rating GLXMAW ([1]; 0.0313 kg/ha): 2.0; Preemergence herbicidal rating GLXMAW ([1]; 0.0625 kg/ha): 6.0; Preemergence herbicidal rating GLXMAW ([1]; 0.1250 kg/ha): 7.0; Preemergence herbicidal rating GLXMAW ([1]; 0.2500 kg/ha): 8.0; Preemergence herbicidal rating AMBEL ([2]; 0.0156 kg/ha): 3.0; Preemergence herbicidal rating AMBEL ([2]; 0.0313 kg/ha): 4.0; Preemergence herbicidal rating AMBEL ([2]; 0.0625 kg/ha): 9.0; Preemergence herbicidal rating AMBEL ([2]; 0.1250 kg/ha): 9.0; Preemergence herbicidal rating AMBEL ([2]; 0.2500 kg/ha): 9.0; Preemergence herbicidal rating ABUTH ([3]; 0.0156 kg/ha): 9.0; Preemergence herbicidal rating ABUTH ([3]; 0.0313 kg/ha): 9.0; Preemergence herbicidal rating ABUTH ([3]; 0.0625 kg/ha): 9.0; Preemergence herbicidal rating ABUTH ([3]; 0.1250 kg/ha): 9.0; Preemergence herbicidal rating ABUTH ([3]; 0.2500 kg/ha): 9.0; Postemergence herbicidal rating ZEAMX ([4]; Rate 0.0156 kg/ha): 5.0; Postemergence herbicidal rating ZEAMX ([4]; Rate 0.0313 kg/ha): 6.5
Cc1cccc(CN2C(=O)CSC2=Nc2cc(-n3c(=O)cc(C(F)(F)F)n(C)c3=O)c(F)cc2Cl)c1 [Compound 130, 3-{4-Chloro-2-fluoro-5-{[3-(m-methylbenzyl)-4-oxo-2-thiazolidinylidene]amino}phenyl}-1-methyl-6-(trifluoromethyl)-2,4 (1H, 3H)-pyrimidinedione] | 0.0 | 0.0 | 2.0 | 3.0 | 5.0 | 0.0 | 1.0 | 7.0 | 9.0 | 9.0 | 1.0 | 9.0 | 9.0 | 9.0 | 9.0 | 4.5 | 4.5 | 5.0 | 
Cn1c(C(F)(F)F)cc(=O)n(-c2cc(N=C3SCC(=O)N3Cc3ccco3)c(Cl)cc2F)c1=O [Compound 122, 3-{4-Chloro-2-fluoro-5-[(3-furfuryl-4-oxo-2-thiazolidinylidene)amino]phenyl}-1-methyl-6-(trifluoromethyl)-2,4(1H,3H)-pyrimidinedione] |  |  |  |  |  |  |  |  |  |  |  |  |  |  |  | 4.5 | 7.0 | 7.0 | Preemergence herbicidal rating GLXMAW ([1]; rate 0.0156 kg/ha): 0.0; Preemergence herbicidal rating GLXMAW ([1]; rate 0.0313 kg/ha): 0.0; Preemergence herbicidal rating GLXMAW ([1]; rate 0.0625 kg/ha): 1.0; Preemergence herbicidal rating GLXMAW ([1]; rate 0.1250 kg/ha): 0.0; Preemergence herbicidal rating GLXMAW ([1]; rate 0.2500 kg/ha): 0.0; Preemergence herbicidal rating GLXMAW ([1]; rate 0.5000 kg/ha): 0.0; Preemergence herbicidal rating AMBEL ([2]; rate 0.0156 kg/ha): 0.0; Preemergence herbicidal rating AMBEL ([2]; rate 0.0313 kg/ha): 0.0; Preemergence herbicidal rating AMBEL ([2]; rate 0.0625 kg/ha): 0.0; Preemergence herbicidal rating AMBEL ([2]; rate 0.1250 kg/ha): 2.0; Preemergence herbicidal rating AMBEL ([2]; rate 0.2500 kg/ha): 2.0; Preemergence herbicidal rating AMBEL ([2]; rate 0.5000 kg/ha): 3.0; Preemergence herbicidal rating ABUTH ([3]; rate 0.0156 kg/ha): 0.0; Preemergence herbicidal rating ABUTH ([3]; rate 0.0313 kg/ha): 0.0; Preemergence herbicidal rating ABUTH ([3]; rate 0.0625 kg/ha): 4.0; Preemergence herbicidal rating ABUTH ([3]; rate 0.1250 kg/ha): 9.0; Preemergence herbicidal rating ABUTH ([3]; rate 0.2500 kg/ha): 9.0; Preemergence herbicidal rating ABUTH ([3]; rate 0.5000 kg/ha): 9.0; herbicidal rating ZEAMX ([4]; rate 0.1250 kg/ha): 7.0
